Results: paper PMC3425544, “The S100A10 Subunit of the Annexin A2 Heterotetramer Facilitates L2-Mediated Human Papillomavirus Infection” (PLoS ONE, 2012)

Experiments:
HepG2 cell line = conditions: ref [28]; cited from earlier work
Text: Nonetheless, the link between HSV and H ...

[1] = system: Bovine Serum Albumin (BSA); test: EPR binding of L2 peptide to BSA (specificity control); conditions: 20 µM peptide, 100 µM BSA
Text: The L2_108–126 peptides used in our EPR studies were synthesized with a cysteine at the N-terminus, and followed by a spacer of 3 physiological amino acids (C-IVS) preceding the canonical L2_108–126 and L2 scrambled sequences (C-IVS-LVEETSFIDAGAPTSVPSI and C-IVS-IESPVSDTALGTPEIFVSA respectively). Peptides were combined with 8× molar excess paramagnetic label (1-oxyl-2, 2, 5, 5-tetramethyl-Δ3-pyrroline-3-methyl) (R1) methanethiosulfonate (MTSL), (Toronto Research Chemicals, Canada) and left to react overnight at 4°C. Free label was removed by gel filtration (PD10 GE, United Kingdom). All peptides were solubilized into HEPES buffer. […] Binding interactions were examined by combining paramagnetically-labeled L2 peptide with A2t, BSA, ANXA2, or S100A10 (20 µM, 100 µM, 100 µM, 100 µM, and 100 µM respectively) in 10 µL volumes of the HEPES buffer, confined by glass capillaries, and measured at room temperature over a period of 24 hours using a Bruker EMX X-band EPR spectrometer. […] To quantify the amount of bound peptide spectra of all tested proteins in combination with the L2_108–126 or ScrL2 peptides were compared to the spectra of L2_108–126 or ScrL2 peptides alone in solution using a spectra analyzing software (EPR 130, University of California, Los Angeles). […]

[2] = system: surface of HeLa, SiHa and CaSki cells; conditions: ref [28], cited from earlier work
[3] = system: A2t (annexin A2 heterotetramer); test: EPR binding of L2 peptide to A2t; set-up: species or system human; conditions: mean of three separate experiments
Text: Next, we wanted to determine if there was a specific interaction between the L2_108–126 peptide and A2t using electron paramagnetic resonance (EPR) spectroscopy. EPR is a method of magnetic resonance spectroscopy measuring unpaired electrons whose underlying basic concepts are not unlike the more widely used technique of nuclear magnetic resonance (NMR) (reviewed in [43]). When coupled with site-directed paramagnetic-labeling, such as the attachment of a moiety with an unpaired electron to a cysteine residue, EPR can be used to obtain structural information within a small vicinity of the paramagnetic-label’s positions along the protein sequence. As a paramagnetic-label becomes locally constrained, such as when bound to another protein, its spectra will drastically change as visualized by a decrease in line amplitude and increased line-broadening. Therefore, EPR provides an in vitro biochemical method that measures protein-protein interactions by monitoring changes in the spectra recorded for a labeled protein in different experimental settings.
For our purposes, an N-terminal cysteine (with a 3 native aa spacer) contained in the L2_108–126 peptide (C-IVS-[…]) was paramagnetic-labeled (an unpaired-electron-containing small molecule was cross-linked via a disulfide bond to the peptide), and its spectra were analyzed after incubation with and without purified human recombinant A2t or controls. […]
Recombinant annexin A2 was expressed in BL21(DE3) Escherichia coli cells and purified using reversible Ca^2+-dependent binding to negatively charged phospholipid vesicles followed by size exclusion chromatography. […] Concentrations of all proteins and peptides, including the A2t complex, were determined using bicinchoninic acid assays (Pierce Thermo Scientific, Rockford, IL) compared to measured absorbance of albumin standards at 562 nm. […]

Substance: C-IVS-LVEETSFIDAGAPTSVPSI [L2_108–126, HPV16 L2 aa 108–126 peptide with N-terminal cysteine and IVS spacer]
- binding to A2t-deficient HepG2 cells vs cervical cancer cell lines (HepG2 cell line): bind significantly less
- binding to BSA [1]: does not bind BSA in a significant manner
- binding to cell lines ([2]; SiHa, CaSki, [29] (b5), [23], [28]): can bind to the surface of several human cell lines
- binding to HeLa cells with substitutions at aa 108–111 ([2]; aa 108–111 substituted (LVEE to GGDD)): decrease the binding
- relative % bound to A2t ([3]; 20 µM paramagnetic-labeled (MTSL) L2 peptide, 100 µM A2t, HEPES pH 7.4, room temperature): 78.0%
- relative % bound to A2t in presence of ScrL2 ([3]; non-paramagnetic-labeled ScrL2 to WT L2_108–126 5∶1 molar ratio): 75.8%
